Experiments:
[1] = Sensory evaluation of aqueous solution II containing (E)-2-octenal 10 ppb: off-flavor intensity and masking component intensity; conditions: (E)-2-octenal 10 ppb, average score 0-4
Procedure, shortened: (§1)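 Eight trained panelists tasted water solutions of the off-flavor compounds spiked with nootkatone. Masking-agent taste was scored absolutely from 0 (not sensed) to 4 (strong). Off-flavor was scored relatively, anchored at 4 for the solution without masker and 0 for ion-exchanged water.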

[2] = Sensory evaluation of aqueous solution III containing 1-octen-3-one 1 ppb: off-flavor intensity and masking component intensity; conditions: 1-octen-3-one 1 ppb, average score 0-4
Procedure, shortened: as §1

[3] = Sensory evaluation of aqueous solution V containing 1-octen-3-ol 10 ppb: off-flavor intensity and masking component intensity; conditions: 1-octen-3-ol 10 ppb, average score 0-4
Procedure, shortened: as §1

[4] = Sensory evaluation of aqueous solution VI containing 1,5-octadien-3-ol 10 ppb: off-flavor intensity and masking component intensity; conditions: aqueous solution VI, 1,5-octadien-3-ol 10 ppb, average score 0-4
Procedure, shortened: as §1

[5] = Overall conclusion of the sensory evaluation across aqueous solutions I to VI
Procedure, shortened: as §1

[6] = Sensory evaluation of aqueous solution IV containing 1,5-octadien-3-one 100 ppt: off-flavor intensity and masking component intensity; conditions: aqueous solution IV, 1,5-octadien-3-one 100 ppt, average score 0-4
Procedure, shortened: as §1

[7] = Sensory evaluation of aqueous solution I containing (E)-2-nonenal 1 ppb: off-flavor intensity and masking component intensity; conditions: (E)-2-nonenal 1 ppb, average score 0-4
Procedure, shortened: as §1

In the case of C=CC(C)(CCC=C(C)C)OC(=O)CCC (stereo not shown) [Linalyl Butyrate, linalyl butyrate], the “Off-Flavor Intensity” value ([1]; 1 ppb added) is reported as 2.3 points, the “Off-Flavor Intensity” value ([1]; 1 ppm added) is reported as 0.6 points and the “Off-Flavor Intensity” value ([1]; 5 ppm added) is reported as 0.4 points. The “Off-Flavor Intensity” value ([1]; 10 ppb added) was 1.8 points, the “Off-Flavor Intensity” value ([1]; 10 ppt added) was 3.1 points and the “Off-Flavor Intensity” value ([1]; 50 ppb added) was 1.5 points. The “Off-Flavor Intensity” value ([1]; 100 ppb added) was 1.4 points, the “Off-Flavor Intensity” value ([1]; 100 ppt added) was 2.8 points and the “Off-Flavor Intensity” value ([1]; 500 ppb added) was 0.9 points. For the same molecule, the “Off-Flavor Intensity” value ([2]; 1 ppb added) was 2.6 points, the “Off-Flavor Intensity” value ([2]; 1 ppm added) was 1.5 points and the “Off-Flavor Intensity” value ([2]; 5 ppm added) was 1.0 points. The “Off-Flavor Intensity” value ([2]; 10 ppb added) was 2.3 points, the “Off-Flavor Intensity” value ([2]; 10 ppt added) was 3.5 points and the “Off-Flavor Intensity” value ([2]; 50 ppb added) was 1.9 points. The “Off-Flavor Intensity” value ([2]; 100 ppb added) was 1.9 points, the “Off-Flavor Intensity” value ([2]; 100 ppt added) was 3.3 points and the “Off-Flavor Intensity” value ([2]; 500 ppb added) was 1.8 points. For the same molecule, the “Off-Flavor Intensity” value ([3]; 1 ppb added) was 2.6 points, the “Off-Flavor Intensity” value ([3]; 1 ppm added) was 1.0 points and the “Off-Flavor Intensity” value ([3]; 5 ppm added) was 0.8 points. For the same molecule, the “Off-Flavor Intensity” value ([3]; 10 ppb added) was 2.3 points, the “Off-Flavor Intensity” value ([3]; 10 ppt added) was 3.3 points and the “Off-Flavor Intensity” value ([3]; 50 ppb added) was 2.1 points. The “Off-Flavor Intensity” value ([3]; 100 ppb added) was 1.9 points, the “Off-Flavor Intensity” value ([3]; 100 ppt added) was 3.0 points and the “Off-Flavor Intensity” value ([3]; 500 ppb added) was 1.3 points. The “Off-Flavor Intensity” value ([4]; 1 ppb added) was 2.0 points, the “Off-Flavor Intensity” value ([4]; 1 ppm added) was 0.5 points and the “Off-Flavor Intensity” value ([4]; 5 ppm added) was 0.1 points. For the same molecule, the “Off-Flavor Intensity” value ([4]; 10 ppb added) was 1.8 points, the “Off-Flavor Intensity” value ([4]; 10 ppt added) was 2.5 points and the “Off-Flavor Intensity” value ([4]; 50 ppb added) was 1.5 points. For the same molecule, the “Off-Flavor Intensity” value ([4]; 100 ppb added) was 1.3 points, the “Off-Flavor Intensity” value ([4]; 100 ppt added) was 2.4 points and the “Off-Flavor Intensity” value ([4]; 500 ppb added) was 0.9 points. For the same molecule, the “concentration that masks the off-flavor and does not affect the flavor of the food and/or beverage itself, lower limit” value [5] was at least 10 ppt, the “concentration that masks the off-flavor and does not affect the flavor of the food and/or beverage itself, upper limit” value [5] was at most 1 ppm and the “Off-Flavor Intensity” value ([6]; 1 ppb added) was 2.9 points. For the same molecule, the “Off-Flavor Intensity” value ([6]; 1 ppm added) was 0.9 points, the “Off-Flavor Intensity” value ([6]; 5 ppm added) was 0.9 points and the “Off-Flavor Intensity” value ([6]; 10 ppb added) was 2.6 points. The “Off-Flavor Intensity” value ([6]; 10 ppt added) was 3.6 points, the “Off-Flavor Intensity” value ([6]; 50 ppb added) was 2.1 points and the “Off-Flavor Intensity” value ([6]; 100 ppb added) was 1.6 points. For the same molecule, the “Off-Flavor Intensity” value ([6]; 100 ppt added) was 3.0 points, the “Off-Flavor Intensity” value ([6]; 500 ppb added) was 1.3 points and the “Off-Flavor Intensity” value ([7]; 1 ppb added) was 2.6 points. For the same molecule, the “Off-Flavor Intensity” value ([7]; 1 ppm added) was 1.3 points, the “Off-Flavor Intensity” value ([7]; 5 ppm added) was 1.0 points and the “Off-Flavor Intensity” value ([7]; 10 ppb added) was 2.3 points. The “Off-Flavor Intensity” value ([7]; 10 ppt added) was 3.4 points, the “Off-Flavor Intensity” value ([7]; 50 ppb added) was 2.0 points and the “Off-Flavor Intensity” value ([7]; 100 ppb added) was 1.9 points. The “Off-Flavor Intensity” value ([7]; 100 ppt added) was 3.1 points and the “Off-Flavor Intensity” value ([7]; 500 ppb added) was 1.3 points.
In the case of C=C(C)[C@@H]1CCC2=CC(=O)C[C@@H](C)[C@]2(C)C1 [Nootkatone, nootkatone], the “Off-Flavor Intensity” value ([1]; 1 ppb added) is reported as 2.6 points, the “Off-Flavor Intensity” value ([1]; 1 ppm added) is reported as 1.5 points and the “Off-Flavor Intensity” value ([1]; 5 ppm added) is reported as 0.6 points. For the same molecule, the “Off-Flavor Intensity” value ([1]; 10 ppb added) was 2.5 points, the “Off-Flavor Intensity” value ([1]; 10 ppm added) was 0.4 points and the “Off-Flavor Intensity” value ([1]; 10 ppt added) was 3.5 points. For the same molecule, the “Off-Flavor Intensity” value ([1]; 100 ppb added) was 1.9 points, the “Off-Flavor Intensity” value ([1]; 100 ppt added) was 3.1 points and the “Off-Flavor Intensity” value ([2]; 1 ppb added) was 2.6 points. For the same molecule, the “Off-Flavor Intensity” value ([2]; 1 ppm added) was 1.6 points, the “Off-Flavor Intensity” value ([2]; 5 ppm added) was 1.1 points and the “Off-Flavor Intensity” value ([2]; 10 ppb added) was 2.3 points. The “Off-Flavor Intensity” value ([2]; 10 ppm added) was 0.9 points, the “Off-Flavor Intensity” value ([2]; 10 ppt added) was 3.4 points and the “Off-Flavor Intensity” value ([2]; 100 ppb added) was 2.1 points. The “Off-Flavor Intensity” value ([2]; 100 ppt added) was 3.1 points, the “Off-Flavor Intensity” value ([3]; 1 ppb added) was 2.5 points and the “Off-Flavor Intensity” value ([3]; 1 ppm added) was 1.5 points. For the same molecule, the “Off-Flavor Intensity” value ([3]; 5 ppm added) was 0.9 points, the “Off-Flavor Intensity” value ([3]; 10 ppb added) was 2.5 points and the “Off-Flavor Intensity” value ([3]; 10 ppm added) was 0.5 points. The “Off-Flavor Intensity” value ([3]; 10 ppt added) was 3.4 points, the “Off-Flavor Intensity” value ([3]; 100 ppb added) was 1.8 points and the “Off-Flavor Intensity” value ([3]; 100 ppt added) was 2.9 points. For the same molecule, the “Off-Flavor Intensity” value ([4]; 1 ppb added) was 2.5 points, the “Off-Flavor Intensity” value ([4]; 1 ppm added) was 1.1 points and the “Off-Flavor Intensity” value ([4]; 5 ppm added) was 0.6 points. For the same molecule, the “Off-Flavor Intensity” value ([4]; 10 ppb added) was 2.1 points, the “Off-Flavor Intensity” value ([4]; 10 ppm added) was 0.6 points and the “Off-Flavor Intensity” value ([4]; 10 ppt added) was 3.1 points. For the same molecule, the “Off-Flavor Intensity” value ([4]; 100 ppb added) was 1.5 points, the “Off-Flavor Intensity” value ([4]; 100 ppt added) was 3.0 points and the “concentration that masks the off-flavor and does not affect the flavor of the food and/or beverage itself, lower limit” value [5] was at least 100 ppt. For the same molecule, the “concentration that masks the off-flavor and does not affect the flavor of the food and/or beverage itself, upper limit” value [5] was at most 1 ppm, the “Off-Flavor Intensity” value ([6]; 1 ppb added) was 3.1 points and the “Off-Flavor Intensity” value ([6]; 1 ppm added) was 2.0 points. For the same molecule, the “Off-Flavor Intensity” value ([6]; 5 ppm added) was 1.3 points, the “Off-Flavor Intensity” value ([6]; 10 ppb added) was 2.9 points and the “Off-Flavor Intensity” value ([6]; 10 ppm added) was 0.9 points. For the same molecule, the “Off-Flavor Intensity” value ([6]; 10 ppt added) was 3.6 points, the “Off-Flavor Intensity” value ([6]; 100 ppb added) was 2.4 points and the “Off-Flavor Intensity” value ([6]; 100 ppt added) was 3.5 points. The “Off-Flavor Intensity” value ([7]; 1 ppb added) was 2.8 points, the “Off-Flavor Intensity” value ([7]; 1 ppm added) was 1.8 points and the “Off-Flavor Intensity” value ([7]; 5 ppm added) was 1.1 points. The “Off-Flavor Intensity” value ([7]; 10 ppb added) was 2.4 points, the “Off-Flavor Intensity” value ([7]; 10 ppm added) was 0.8 points and the “Off-Flavor Intensity” value ([7]; 10 ppt added) was 3.4 points. For the same molecule, the “Off-Flavor Intensity” value ([7]; 100 ppb added) was 2.1 points and the “Off-Flavor Intensity” value ([7]; 100 ppt added) was 3.3 points.

From US20250176599A1, “FLAVOR COMPOSITION AND FOOD AND BEVERAGE” (TAKASAGO INTERNATIONAL CORPORATION, priority 2021, published 2025)
